Source: patent US10702568B2, “Compositions containing silymarin and sulfoalkyl ether cyclodextrin and methods of using the same” (UNIVERSITY OF KANSAS, priority 2015, dated 2020)

Columns and labels:
[1] = Pharmacokinetic study in rat; assay type: in vivo; details: oral, FIG. 21A
Method: The Silymarin-CAPTISOL® complex was administered to rat to test its pharmacokinetic properties.
On arrival rats were housed individually in cages at animal care facility in a temperature and humidity controlled room with a 12 h:12 h (light:dark) cycles. The rats were provided with free access to food and water for one week before using for experimental purpose. The 12 rats were equally divided into three groups—Group I: silymarin-CAPTISOL® complex with a CAPTISOL® concentration of 100 mM for oral administration; Group II: silymarin suspension (Control); and Group III: silymarin complex with a CAPTISOL® concentration of 100 mM for intravenous administration. The animals were fasted overnight with free access to water. On the day of experiment, the rat was removed from animal care facility and brought to the procedure lab. The animal was weighed and appropriate dosing volume was determined. For oral administration, rat's head was held in place by gently extending the head back and supporting the lower body. The gavage tube was placed in the mouth and advanced along the lower palate till the esophagus, and the silymarin was administered through the tube. For intravenous administration, the silymarin-CAPTISOL® complex was administered by slow bolus intravenous injection into the tail vein. Approximately 200 μL blood was drawn into heparin coated tubes at pre dose, 0.15, 0.5, 1, 2, 4, 8, 10 and 24 h for oral group II and for intravenous group III. The sampling time points were predose, 0.12, 0.25, 0.5, 1, 2, 4, 8 and 24 h through the jugular vein catheter. Plasma was harvested by centrifuging the blood at 4000 RPM for 5 min and stored frozen at −80±10° C. until analysis.
Stored plasma was thawed just before performing the silymarin components analysis. 200 μL of acetonitrile containing 0.1% of ammonia was added to 50 μL of plasma, and this mixture was vortexed for 5 min and centrifuged at 4° C. for 5 min at 10,000 RPM. After centrifugation, the supernatant was separated and injected into HPLC for analysis of silymarin constituents taxifolin, silydianin, silychristin, silybin A, silybin B, isosilybin A and isosilybin B.
The plasma concentration-time curves of silybin A, silybin B, isosilybin A, and isosilybin B in the Silymarin-CAPTISOL® sample of Group I and the control sample (silymarin suspension) are respectively shown in FIGS. 20A to 20D.

[2] = Permeation across the porcine intestine (Franz diffusion cell); assay type: in vitro ADME; details: 37° C., receiver PBS pH 7.4
Method: The Silymarin-CAPTISOL® complex was tested for its permeability in the GI tract using the porcine intestine and the silymarin solution without CAPTISOL® as a control sample. Freshly excised porcine intestine was cleaned and sandwiched between the two chambers of a Franz diffusion cell with an active diffusion area of 0.64 cm^2. The donor chamber was filled with 0.5 ml of CAPTISOL® enabled silymarin solution (prepared using ligand method) or pure silymarin in Phosphate buffered saline (PBS): Ethanol (80:20) used as a positive control. Receiver chamber was filled with 5 ml of PBS, pH 7.4, which is stirred at 600 rpm with a 3 mm magnetic stir bar at 37° C. temperature maintained with a circulating water bath. 200 μL of buffer from receiver side was withdrawn at different time intervals (0, 1, 2, 4, 6 and 8 h) and equal volume was replaced with fresh PBS buffer. Above samples were transferred into vials and subjected to HPLC analysis.
The control sample was prepared by adding excess of the silymarin extract to Phosphate buffered saline (PBS): Ethanol (80:20). These samples were shook at room temperature for 24 hr, and at equilibrium the samples were centrifuged at 10,000 RPM and filtered using Millipore (0.22 μm) syringe filter. The filtrates were analyzed using HPLC for Taxifolin, Silychristin, Silydianin, Silybin A, Silybin B, Isosilybin A and Isosilybin B after appropriate dilution. […]

[3] = Silymarin solubility at elevated temperatures (Example 3, HPLC); assay type: physicochemical; details: 160 mg silymarin in 1 ml 0.1 M CAPTISOL®, sealed vial, 70-75° C., about one hour
Method: The solubility of silymarin was also studied at elevated temperatures. The silymarin-water samples were prepared by adding 3.0 ml of deionized water or 3.0 ml of CAPTISOL® solution (0.05 M, 0.10 M, or 0.20 M) to 155 mg silymarin 80% in 5 ml Eppendorf tube, and the tubes were capped securely to minimize evaporation loss and submerged in a water bath at an elevated temperature (60° C. or 75° C.)). CAPTISOL® solutions were prepared by dissolving CAPTISOL® in water. The solution in the tube was stirred for a certain amount of time. The solution was then centrifuged for 5 min twice and the supernatant was diluted with 40% methanol for HPLC analysis. The silymarin CAPTISOL® samples were diluted by adding 10 μL supernatant sample to 990 μL diluent. The silymarin water samples were diluted by adding 100 μL supernatant sample to 900 μL diluent. The diluted samples were then analyzed using HPLC according to the procedures described in Example 1.
Saturated CAPTISOL® silymarin solutions were also prepared by adding 160 mg silymarin to 1 ml of 0.1 M CAPTISOL® solution in a sealed vial under mechanic stirring and the vial was kept in a water bath at 70-75° C. The solution became quickly saturated in about one hour. The solution was then cooled to room temperature and centrifuged, and the supernatant can then be used for preparing various formulations. […]

O=C1c2c(O)cc(O)cc2O[C@H](c2ccc(O)c(O)c2)[C@H]1O [Taxifolin]
AUC of Silymarin-CAPTISOL® complex compared with the control sample [1]: higher AUC | Apparent permeability coefficient Papp × 10^−3 ([2]; Silymarin CAPTISOL® complex in donor chamber): 9.46 × 10^−3 | Apparent permeability coefficient Papp × 10^−3 ([2]; Silymarin in Ethanol:PBS (20:80) (control)): 1.12 × 10^−3 | concentration fold higher than in the water silymarin sample [3]: 5 fold
